molecular target: T1, recombinant human mGluR2 (Homo sapiens, UniProt Q14416); assay: FLIPR Ca2+ mobilization assay, potentiation of glutamate (EC20) response; format: cell-based; conditions: CHO dhfr- cells expressing human mGluR2 and Gα16; potentiation with EC20 glutamate (900 nM); read-out: Representative FLIPR EC50 Values
T1 construct: expressed in transfected cells
Procedure: Potencies are determined as follows. The compounds of the present invention may be tested in a fluorescence laser imaging plate reader (FLIPR) based assay. This assay is a common functional assay to monitor Ca^2+ mobilization in whole cells expressing recombinant receptor coupled with a promiscuous G-protein. CHO dhfr− cells stably expressing recombinant human mGluR2 and Gα16 loaded with Fluo-4 AM (Invitrogen, Carlsbad Calif.) are treated with varying concentrations of compounds and the Ca^2+ response is monitored on a FLIPR384 (Molecular Devices, Sunnydale Calif.) for agonist activity. The potentiation response is monitored after a subsequent addition of an EC20 concentration of glutamate (900 nM). The maximum calcium response at each concentration of compound for agonism or potentiation are plotted as dose responses curves fitted with a four parameters logistic equation giving EC50 and Hill coefficient using the iterative non linear curve fitting software program.

T1 sequence (Q14416 19-872): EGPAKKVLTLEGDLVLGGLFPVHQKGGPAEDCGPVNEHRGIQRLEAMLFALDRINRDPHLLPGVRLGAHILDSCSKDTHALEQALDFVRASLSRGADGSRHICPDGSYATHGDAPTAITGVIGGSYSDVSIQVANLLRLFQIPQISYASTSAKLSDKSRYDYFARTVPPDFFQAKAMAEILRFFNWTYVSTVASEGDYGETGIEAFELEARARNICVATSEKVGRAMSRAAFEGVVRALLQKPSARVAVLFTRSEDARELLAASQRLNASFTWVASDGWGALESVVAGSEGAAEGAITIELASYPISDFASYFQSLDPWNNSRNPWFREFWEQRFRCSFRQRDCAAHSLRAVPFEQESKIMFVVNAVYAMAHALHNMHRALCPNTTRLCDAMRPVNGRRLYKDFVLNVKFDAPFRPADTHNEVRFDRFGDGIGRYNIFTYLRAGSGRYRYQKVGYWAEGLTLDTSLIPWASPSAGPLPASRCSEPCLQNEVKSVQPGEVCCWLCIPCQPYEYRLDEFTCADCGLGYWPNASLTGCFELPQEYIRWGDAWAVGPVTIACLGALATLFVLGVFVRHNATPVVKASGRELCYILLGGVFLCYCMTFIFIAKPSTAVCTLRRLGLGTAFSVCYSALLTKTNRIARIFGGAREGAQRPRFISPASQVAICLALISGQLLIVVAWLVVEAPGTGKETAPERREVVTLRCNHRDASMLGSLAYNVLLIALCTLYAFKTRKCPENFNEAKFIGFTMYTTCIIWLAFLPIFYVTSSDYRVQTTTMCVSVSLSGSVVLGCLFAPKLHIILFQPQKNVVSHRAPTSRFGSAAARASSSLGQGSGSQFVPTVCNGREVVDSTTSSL

| SMILES | EC50 [µM] |
| --- | --- |
| CC(=O)N1CCCN(Cc2cc(F)cnc2Oc2ccc3c(nnn3CC3CC3)c2Br)CC1 [Example 253, 5-({3-[(4-acetyl-1,4-diazepan-1-yl)methyl]-5-fluoropyridin-2-yl}oxy)-4-bromo-1-(cyclopropylmethyl)-1H-benzotriazole] | 0.052 |
| Cn1cc(-c2cnc(Oc3ccc4c(nnn4CC(C)(C)C)c3Br)c(C#N)c2)cn1 [Example 169, 2-{[4-bromo-1-(2,2-dimethylpropyl)-1H-benzotriazol-5-yl]oxy}-5-(1-methyl-1H-pyrazol-4-yl)pyridine-3-carbonitrile] | 0.425 |
| CC(C)(C)Cn1nnc2c(Br)c(Oc3ccncc3)ccc21 [compound 423, 4-bromo-1-(2,2-dimethylpropyl)-5-pyridin-4-yloxy-1H-benzotriazole] | 0.141 |
| OCC(O)c1cccnc1Oc1ccc2c(nnn2CC2CC2)c1Br (centres unmarked) [Example 52, 1-(2-{[4-bromo-1-(cyclopropylmethyl)-1H-benzotriazol-5-yl]oxy}pyridin-3-yl)ethane-1,2-diol] | 0.814 |
| CC1(O)CCN(Cc2cccnc2Oc2ccc3c(nnn3CC3CC3)c2Br)CC1 [Example 227, 1-[(2-{[4-bromo-1-(cyclopropylmethyl)-1H-benzotriazol-5-yl]oxy}pyridin-3-yl)methyl]-4-methylpiperidin-4-ol] | 0.705 |
| CC(C)(C)Cn1nnc2c(Br)c(Oc3ncccc3C(F)(F)F)ccc21 [Example 111, 4-bromo-1-(2,2-dimethylpropyl)-5-{[3-(trifluoromethyl)pyridin-2-yl]oxy}-1H-benzotriazole] | 0.064 |
| CC(C)(O)c1cccnc1Oc1ccc2c(nnn2CC2CC2)c1Cl [Example 396, 2-(2-{[4-chloro-1-(cyclopropylmethyl)-1H-benzotriazol-5-yl]oxy}pyridin-3-yl)propan-2-ol] | 0.556 |
| FCC1CCN(Cc2cccnc2Oc2ccc3c(nnn3CC3CC3)c2Br)C1 (centres unmarked) [Example 215, 4-bromo-1-(cyclopropylmethyl)-5-[(3-{[3-(fluoromethyl)pyrrolidin-1-yl]methyl}pyridin-2-yl)oxy]-1H-benzotriazole] | 0.129 |
| Cc1cccnc1Oc1ccc2c(nnn2CC(C)(C)C)c1Br [Example 122, 4-bromo-1-(2,2-dimethylpropyl)-5-[(3-methylpyridin-2-yl)oxy]-1H-benzotriazole] | 0.08 |
| O=C(NCc1cc(F)cnc1Oc1ccc2c(nnn2CC2CC2)c1Br)c1ccon1 [Example 284, N-[(2-{[4-bromo-1-(cyclopropylmethyl)-1H-benzotriazol-5-yl]oxy}-5-fluoropyridin-3-yl)methyl]isoxazole-3-carboxamide] | 0.064 |
| OC1(c2cccnc2Oc2ccc3c(nnn3CC3CC3)c2Cl)CCC(C(F)(F)F)CC1 (centres unmarked) [Example 411, 1-(2-{[4-chloro-1-(cyclopropylmethyl)-1H-benzotriazol-5-yl]oxy}pyridin-3-yl)-4-(trifluoromethyl) cyclohexanol] | 0.257 |
| OC(CF)(CF)c1cccnc1Oc1ccc2c(nnn2CC2CC2)c1Cl [Example 398, 2-(2-{[4-chloro-1-(cyclopropylmethyl)-1H-benzotriazol-5-yl]oxy}pyridin-3-yl)-1,3-difluoropropan-2-ol] | 0.556 |
| CC(O)c1ncccc1Oc1ccc2c(nnn2CC(C)(C)C)c1Br (centres unmarked) [Example 151, 1-(3-{[4-bromo-1-(2,2-dimethylpropyl)-1H-benzotriazol-5-yl]oxy}pyridin-2-yl)ethanol] | 0.122 |
| COCC(OC)c1cccnc1Oc1ccc2c(nnn2CC2CC2)c1Br (centres unmarked) [Example 55, 4-bromo-1-(cyclopropylmethyl)-5-{[3-(1,2-dimethoxyethyl)pyridin-2-yl]oxy}-1H-benzotriazole] | 0.095 |
| CC(O)c1cccnc1Oc1ccc2c(nnn2CC2CC2)c1C(F)(F)F (racemic) [Example 418, (±)-1-(2-{[1-(cyclopropylmethyl)-4-(trifluoromethyl)-1H-benzotriazol-5-yl]oxy}pyridin-3-yl)ethanol] | 0.049 |

The next molecules have a lower EC50 than those just listed; values first:

| EC50 [µM] | SMILES |
| --- | --- |
| 0.032 | FC1(F)CCN(Cc2cccnc2Oc2ccc3c(nnn3CC3CC3)c2Br)CC1 [Example 194, 4-Bromo-1-(cyclopropylmethyl)-5-({3-[(4,4-difluoropiperidin-1-yl)methyl]pyridin-2-yl}oxy)-1H-benzotriazole] |
| 0.023 | CC(C)(C)Cn1nnc2c(Br)c(Oc3cccc(Br)n3)ccc21 [Example 148, 4-bromo-5-[(6-bromopyridin-2-yl)oxy]-1-(2,2-dimethylpropyl)-1H-benzotriazole] |
| 0.003 | CS(=O)(=O)N1CCN(Cc2cc(Cl)cnc2Oc2ccc3c(nnn3CC3CC3)c2Br)CC1 [Example 198, 4-bromo-5-[(5-chloro-3-{[4-(methylsulfonyl)piperazin-1-yl]methyl}pyridin-2-yl)oxy]-1-(cyclopropylmethyl)-1H-benzotriazole] |
| 0.019 | CC(C)(C)OC(=O)N1C[C@@H]2C[C@H]1CN2Cc1cc(Cl)cnc1Oc1ccc2c(nnn2CC2CC2)c1Br [Example 297, tert-butyl(1S,4S)-5-[(2-{[4-bromo-1-(cyclopropylmethyl)-1H-benzotriazol-5-yl]oxy}-5-chloropyridin-3-yl)methyl]-2,5-diazabicyclo[2.2.1] heptane-2-carboxylate] |
| 0.006 | CC(C)(C)C(O)c1cccnc1Oc1ccc2c(nnn2CC2CC2)c1Br (centres unmarked) [Example 91, 1-(2-{[4-bromo-1-(cyclopropylmethyl)-1H-benzotriazol-5-yl]oxy}pyridin-3-yl)-2,2-dimethylpropan-1-ol] |
| 0.039 | FC1(F)CCCN(Cc2cccnc2Oc2ccc3c(nnn3CC3CC3)c2Br)C1 [Example 204, 4-bromo-1-(cyclopropylmethyl)-5-({3-[(3,3-difluoropiperidin-1-yl)methyl]pyridin-2-yl}oxy)-1H-benzotriazole] |
| 0.011 | OC(c1cccnc1Oc1ccc2c(nnn2CC2CC2)c1Br)C1CC1 (centres unmarked) [Example 93, (2-{[4-bromo-1-(cyclopropylmethyl)-1H-benzotriazol-5-yl]oxy}pyridin-3-yl)(cyclopropyl)methanol] |
| 0.013 | OCC1C2CN(Cc3cc(Cl)cnc3Oc3ccc4c(nnn4CC4CC4)c3Br)CC12 (centres unmarked) [Example 357, {3-[(2-{[4-bromo-1-(cyclopropylmethyl)-1H-benzotriazol-5-yl]oxy}-5-chloropyridin-3-yl)methyl]-3-azabicyclo[3.1.0]hex-6-yl}methanol] |
| 0.008 | CS(=O)(=O)N1CCCN(Cc2cc(Cl)cnc2Oc2ccc3c(nnn3CC3CC3)c2Br)CC1 [Example 280, 4-bromo-5-[(5-chloro-3-{[4-(methylsulfonyl)-1,4-diazepan-1-yl]methyl}pyridin-2-yl)oxy]-1-(cyclopropylmethyl)-1H-benzotriazole] |
| 0.002 | CC1CN(Cc2cc(F)cnc2Oc2ccc3c(nnn3CC3CC3)c2Br)CCN1S(C)(=O)=O (stereo in doubt) [Example 290, 4-bromo-1-(cyclopropylmethyl)-5-[(5-fluoro-3-{[(3R)-3-methyl-4-(methylsulfonyl)piperazin-1-yl]methyl}pyridin-2-yl)oxy]-1H-benzotriazole] |
| 0.02 | OC(c1cccnc1Oc1ccc2c(nnn2CC2CC2)c1C(F)(F)F)C1CC1 (centres unmarked) [Example 421, cyclopropyl(2-{[1-(cyclopropylmethyl)-4-(trifluoromethyl)-1H-benzotriazol-5-yl]oxy}pyridin-3-yl)methanol] |
| 0.005 | Clc1cnc(Oc2ccc3c(nnn3CC3CC3)c2Br)c(CN2CCN(c3nccs3)CC2)c1 [Example 320, 4-bromo-5-[(5-chloro-3-{[4-(1,3-thiazol-2-yl)piperazin-1-yl]methyl}pyridin-2-yl)oxy]-1-(cyclopropylmethyl)-1H-benzotriazole] |
| 0.008 | Clc1cnc(Oc2ccc3c(nnn3CC3CC3)c2Br)c(CN2CC(n3cccn3)C2)c1 [Example 384, 4-bromo-5-[(5-chloro-3-{[3-(1H-pyrazol-1-yl)azetidin-1-yl]methyl}pyridin-2-yl)oxy]-1-(cyclopropylmethyl)-1H-benzotriazole] |
| 0.005 | CC(C)(C)C(O)c1cccnc1Oc1ccc2c(nnn2CC2CC2)c1Br (centres unmarked) [Example 72, 1-(2-{[4-bromo-1-(cyclopropylmethyl)-1H-benzotriazol-5-yl]oxy}pyridin-3-yl)-2,2-dimethylpropan-1-ol] |
| 0.008 | CS(=O)(=O)NC1CCN(Cc2cc(Cl)cnc2Oc2ccc3c(nnn3CC3CC3)c2Br)CC1 [Example 365, N-{1-[(2-{[4-bromo-1-(cyclopropylmethyl)-1H-benzotriazol-5-yl]oxy}-5-chloropyridin-3-yl)methyl]piperidin-4-yl}methanesulfonamide] |
| 0.04 | FC(F)(F)CNCc1cccnc1Oc1ccc2c(nnn2CC2CC2)c1Br [Example 213, N-[(2-{[4-bromo-1-(cyclopropylmethyl)-1H-benzotriazol-5-yl]oxy}pyridin-3-yl)methyl]-2,2,2-trifluoroethanamine] |
| 0.021 | CCC(O)c1cccnc1Oc1ccc2c(nnn2CC(C)(C)C)c1Br (centres unmarked) [Example 184, 1-(2-{[4-bromo-1-(2,2-dimethylpropyl)-1H-benzotriazol-5-yl]oxy}pyridin-3-yl)propan-1-ol] |

— patent publication US8975286B2, “Ether benzotriazole derivatives” (Merck Sharp & Dohme Corp., priority 2009, dated 2015)
